The source of these data is article PMC7767506, “Synthesis and Characterization of Store-Operated Calcium Entry Inhibitors Active in the Submicromolar Range” (International Journal of Molecular Sciences, 2020).

For data set [1], the system named is caspase-3 activity in Jurkat cells. Put plainly: Fluorometric caspase-3 activity assay (Ac-DEVD-AFC) in Jurkat cells. In kind it is cell-based, human. How it is done: To verify the mechanism of cell death induced by compound P11, we next performed caspase-3 activity assays using the fluorogenic Ac-DEVD-AFC substrate as well as a TUNEL assay.
Caspase-3 activity was measured using the fluorogenic substrate Ac-DEVD-AFC (Tebu-bio, Le Perray-en-Yvelines, France) according to the manufacturer’s instructions. Briefly, 48-well plates were seeded with 10^6 Jurkat T cells per well. Cells were then incubated for 24 h with 0, 1, or 10 µg/mL PHA and 0 to 1 µM P11 in complete culture medium. After 24 h, cells were collected and lysed in RIPA lysis buffer supplemented with protease inhibitor cocktails (Life Science Biorad, Marnes la Coquette, France). The protein samples were quantified using the DC protein assay reagent (Biorad, Les Ulis, France). Cell lysates (50 µg) were diluted with reaction buffer (200 mM Hepes pH 7.4, 1 mM EDTA, 20% sucrose and 20 mM dithiothreitol) and incubated with the fluorogenic substrate (20 µM final concentration) for 45 min up to 7 h at 37 °C. The release of 7-amino-4-trifluoromethylcoumarin (AFC) was measured by fluorescence (excitation at 405 nm, emission at 505 nm) using a Victor3 plate reader (Perkin Elmer, Courtaboeuf, France).

In data set [2] the test system is SOCE in DG75 (human Burkitt lymphoma cell line). Put plainly: Thapsigargin-induced SOCE in DG75 cells, Indo-1. Format: cell-based. How it is done:
(§1) We also tested P11 on the DG75 (Burkitt B lymphoma), U937 (monocytic lymphoma), and MDA-MB231 (breast carcinoma) cell lines. […] Thus, in several cell lines, full inhibition of the SOCE was already obtained at a concentration of 100 nM (Figure 3B).
(§2) [Ca^2+]cyt was recorded by a fluorimetric ratio technique as previously described. Leukocytes were spun and resuspended at a density of 10^6 cells/mL in Hepes buffered saline (HBS; 135 mM NaCl, 5.9 mM KCl, 1.2 mM MgCl2, 11.6 mM Hepes, 11.5 mM glucose adjusted to pH 7.3 with NaOH). Due to the presence of 0.002% Ca^2+ in the NaCl, this HBS medium contained 0.1 mM of Ca^2+. Then, cells were incubated in the dark with 4 μM Indo-1-AM for one hour at room temperature under slow agitation. […] Ultraviolet light of 360 nm was used for excitation of Indo-1, and emissions at 405 and 480 nm were recorded. […] The maximum Indo-1 fluorescence (Rmax) was obtained by adding 1 µM ionomycin to the cell suspension in the presence of 10 mM extracellular CaCl2. Minimum fluorescence was determined following the depletion of external Ca^2+ with 5 mM EGTA.
(§3) To visualize the SOCE, cells were placed into the quartz cuvette and 0.5 EGTA was added just before the beginning of the recordings. […] In the dose-response experiments, different concentrations of 2-APB and its analogs were added 30 s prior to Ca^2+ readdition.

The subject of data set [3] is Orai1-expressing lymphoblastoid cell line. Put plainly: SOCE in Orai1-expressing lymphoblastoid cell line (LCL Orai1+). Format: cell-based, human. The note with it: 1 µM. The method, then:
We next tested P11 efficacy on two lymphoblastoid cell lines (“LCL”) established from an Orai1-deficient with a severe combined immunodeficiency (“LCL Orai1−”) and a healthy (“LCL Orai1+”) patients (Figure 3C [19]). […] However, CaCl2 addition after 10 min of TG treatment was only able to induce a massive [Ca^2+]cyt rise in LCL expressing Orai1 proteins, confirming the SOCE default of the SCID patient.
as §2, with “Ca^2+.” for “Ca^2+. Then, cells were incubated in the dark with 4 μM Indo-1-AM for one hour at room temperature under slow agitation.”
as §3

Data set [4] relates to Mn2+ influx through SOCC in Jurkat cells. Put plainly: Mn2+ influx by Indo-1 quenching in Jurkat cells. In kind it is cell-based, human. Conditions: 1 µM. The text has this:
As [Ca^2+]cyt results from a balance between Ca^2+ influx and efflux, this decay was due to the activity of the plasma membrane Ca^2+ ATPases (“PMCA”) and the Na^+/Ca^2+ exchanger (“NCX”) counteracting the SOCE (TG has blocked the SERCA activity, impairing Ca^2+ uptake in the ER). To ensure that compound P11 acted on the SOCE and not on the Ca^2+-efflux mechanisms, we next performed a Mn^2+-quenching experiment with Indo-1. Mn^2+ ions enter the cells through SOCC but cannot be pumped outside the cells by PMCA and NCX; once in the cells, Mn^2+ bound to Indo-1 and quenched its fluorescence measured at 430 nm. Thus, an increase of the Mn^2+ influx amplitude was associated with an increase of the Indo-1 quenching speed, and reversely.
After a 10 min TG treatment to open the SOCC, 100 µM MnCl2 was added. Mn^2+ induced a quenching rate of −0.89 ± 0.05% Fo/s (n = 3, Figure 3A). […]
To study directly the divalent ion influx through the SOCC with selected 2-APB analogs, we performed Mn^2+ quenching experiments. Mn^2+ ions bind to Indo-1 and quench the 430 nm emission wavelength fluorescence after excitation at 360 nm. The decrease of fluorescence is directly dependent on Mn^2+ entry through SOCC. […] After 60 s a 2-APB analog was added as indicated and the change in the curve slope was measured.

For data set [5], the system named is PHA-stimulated Jurkat cells. Put plainly: PHA-induced Ca2+ mobilization in Jurkat cells, Indo-1. In kind it is cell-based, human. The source says:
Having shown that compound P11 was able to block the Jurkat cell SOCE, we next performed experiments using phytohemagglutinin (“PHA”). PHA is commonly used to cross-link the T cell receptor allowing the synthesis of IL-2 and thereafter the T cell activation. […] Noteworthy, PHA was able to induce a weak Ca^2+ release from internal stores (orange curve). […] However, after reaching a peak at 180 s, the [Ca^2+]cyt started to decay and decreased to a value beneath the [Ca^2+]cyt before cell stimulation.
In experiments with PHA, cells were placed in the cuvette, and 0.9 mM CaCl2 was added to reach a 1 mM extracellular concentration. Free Ca^2+ concentrations were calculated using the Bad4 software
Background: A change in cytosolic calcium serves as a functional read-out for many receptors and channels.

Data set [6] has as its system SOCE in U937 (human monocytic lymphoma cell line). Put plainly: Thapsigargin-induced SOCE in U937 cells, Indo-1. Format: cell-based. The method, then:
as §1, §2, §3

As to “2-(dibiphenyl-4-ylboryloxy)ethanamine [P11]”, the caspase-3 activity in data set [1] (10 µg/mL PHA + 1 µM P11, 24 h) amounted to 3332 ± 113 AU. Besides, the “caspase-3 activity, compound alone” value in data set [1] (P11 alone, up to 1 µM) is given as “did not induce any increase”. Moreover, the “concentration giving maximal activating effect on caspase-3 activity” value in data set [1] (with 10 µg/mL PHA, 24 h) was 10 nM. Further, the values for the inhibition constant (Ki) in data set [2] (DG75 cells) and in data set [6] were 32 ± 2 nM and 40 ± 5 nM, respectively. The “concentration of full SOCE inhibition” value in data set [2] (in several cell lines (Figure 3B)) was determined as 100 nM. In data set [3], the “effect on [Ca2+]cyt after SOCE activation” value was “immediate decrease of [Ca^2+]cyt”. In data set [4], the “blockade of Mn2+ quenching rate” value is recorded as “≈ 90%”. Besides, in data set [4] (added 30 s prior to 100 µM MnCl2), the “Indo-1 quenching rate by Mn2+” value was -0.09 ± 0.01 % Fo/s. In data set [5] (1 µM), the “PHA-induced Ca2+ release from internal stores” value is recorded as “did not affect”. Moreover, the “PHA-induced Ca2+ mobilization” value in data set [5] (increasing [P11], 10 µg/mL PHA, 1 mM extracellular CaCl2) is recorded as “largely inhibited”.

As usually defined, the Ki is the equilibrium dissociation constant of an inhibitor or competing ligand from its target. A lower Ki goes with tighter binding.
